This note sets out measurements from article PMC8804135 (Neurotherapeutics, 2021).

Numbered stars: 1 amine (or outer) side, 2 acyl side, 3 side chain; on linkers, the order of the positions; unused ones are H or OH. Bridge positions count the residues as written; N and C are the ends. Square brackets hold non-standard residues; d marks the D form. Peptide text beside a SMILES is read from it. dAbu(3S-yl) = C[C@@H]([C@@H](N[*:1])C(=O)[*:2])[*:3]; pGlu = O=C1CC[C@@H](C(=O)O)N1

Type in all cases: cell-based
The target in experiment [1] is T1, GAL1R (Homo sapiens, UniProt P47211).
T1 sequence (P47211 1-349): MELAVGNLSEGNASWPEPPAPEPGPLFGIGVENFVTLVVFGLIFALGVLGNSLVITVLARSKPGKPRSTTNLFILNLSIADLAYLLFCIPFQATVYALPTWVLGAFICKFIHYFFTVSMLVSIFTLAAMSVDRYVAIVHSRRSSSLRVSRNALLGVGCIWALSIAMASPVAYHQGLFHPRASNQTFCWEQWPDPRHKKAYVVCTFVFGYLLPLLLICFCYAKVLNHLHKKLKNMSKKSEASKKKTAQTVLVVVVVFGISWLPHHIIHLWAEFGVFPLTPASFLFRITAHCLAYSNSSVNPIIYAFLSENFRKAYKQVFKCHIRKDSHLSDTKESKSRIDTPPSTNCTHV
The experiment can be described thus: PathHunter eXpress β-arrestin recruitment assay, GAL1R. To be noted: Table 3; CHO-K1 cells co-expressing GAL1R and β-arrestin 2; 10 µM to 5 nM; (average) ratio, (n) in cell = number of assays; NA = ratio above 1000. The arrangement: expressed in transfected cells. The method, then: (§1) To evaluate the ability of lanthipeptides to recruit ß-arrestins via GAL1R or via GAL2R, we used the PathHunter® eXpress GAL1R, CHO-K1, β-arrestin GPCR Assay and the PathHunter® eXpress GAL2R, CHO-K1, β-arrestin, GPCR Assay from Eurofins-DiscoverX. The assays were performed according to the manufacturer’s instructions. Briefly, for one assay, CHO-K1 cells co-expressing GAL1R or GAL2R and β-arrestin (isoform 2) were diluted in AssayComplete™ Cell Plating Reagent, and 100 µl was seeded into each well of a 96-well plate. The plate was incubated at 37 °C, 5% CO2 in a humidified incubator. A serial 3 × dilution of the lanthipeptides in water was made (10 µM to 5 nM). After 48 h of incubation, 10 µl of the serial dilutions was applied to the cells in duplicate. The agonists were incubated for 90 min at 37 °C. Next, 55 µL of Working Detection Solution was added, and after 1 h of incubation at room temperature in the dark, the chemiluminescent signal was read with a Synergy HT Biotek reader.
In general terms: Activated receptors often draw arrestin, which recruitment assays turn into a signal.

Experiment [2] has as its target T2, GAL2R (Homo sapiens, UniProt O43603).
T2 sequence (O43603 1-387): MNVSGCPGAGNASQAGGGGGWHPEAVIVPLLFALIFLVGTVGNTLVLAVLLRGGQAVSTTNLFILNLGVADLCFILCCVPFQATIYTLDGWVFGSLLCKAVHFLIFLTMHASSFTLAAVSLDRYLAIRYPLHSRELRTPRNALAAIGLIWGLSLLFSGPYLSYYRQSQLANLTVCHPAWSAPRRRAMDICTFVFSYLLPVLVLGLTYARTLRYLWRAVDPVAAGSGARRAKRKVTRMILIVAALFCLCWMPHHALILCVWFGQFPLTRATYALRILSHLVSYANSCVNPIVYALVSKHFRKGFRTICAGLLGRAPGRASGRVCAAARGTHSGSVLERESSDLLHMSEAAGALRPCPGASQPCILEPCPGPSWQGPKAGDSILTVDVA
The experiment can be described thus: Fluo-4 Direct calcium assay (Ca efflux) in HEK293 cells overexpressing GAL2R. To be noted: Table 3; HEK293 cells stably overexpressing GAL2R; Fluo-4, from 10 µM; (average) ratio, (n) in cell = number of assays; NA = ratio above 1000. The protocol: Calcium efflux was measured by using a Fluo-4 Direct Calcium Assay purchased from Thermo Fisher Scientific. HEK293 cells with stable overexpression of GAL2R (HEKR2) (kindly provided by Harald Dargatz, Molecular, Cellular and Pharmacobiology Section, Institute of Pharmaceutical Biology, University of Bonn, 53,115 Bonn, Germany) were used for analysis of the lanthipeptides. HEKR2 cells were seeded in a 96-well plate and grown overnight in DMEM supplemented with 10% FBS, 1% penicillin–streptomycin, 100 µg/ml Normocin, and 500 µg/ml G418 at 37 °C, 5% CO2 in a humidified incubator.
The next day, when the cells were nearly confluent, an equal amount of 2 × Fluo-4 Direct™ calcium reagent loading solution, containing 5 mM probenecid, was added to the wells, and the plate was incubated for 1 h at 37 °C. A serial 3 × dilution of the agonist compound in water was made, and 10 µl of the serial dilutions was applied to the cells in duplicate. The starting concentration of agonist in the assay was 10 µM. After 1–2 h of incubation at room temperature, the fluorescence was measured with excitation at 485/20 nm and emission at 528/20 nm with a Synergy HT Biotek reader.

In experiment [3] the target is T1, GAL1R. The experiment can be described thus: Label-free dynamic mass redistribution assay, SY5Y-R1 cells. The arrangement: expressed in transfected cells. To be noted: GAL1R-expressing SH-SY5Y cells; 1.6 nM to 5 µM. The protocol:
SH-SY5Y cells stably expressing low levels of either human GAL1R (SY5Y-R1) or GAL2R (SY5Y-R2) and HEK293 cells expressing human GAL3R (HEK-R3) were seeded in EnSpire LFC-[…] well plates (Perkin Elmer) at a concentration of 12,000 cells per well and cultured overnight at 37 °C and 5% CO2. The medium was aspired, and the cells were washed four times with Hank’s balanced salt solution (HBSS) (+ calcium, + magnesium) supplemented with HEPES (20 mM), and the final volume was adjusted to 30 µl per well. The plate was allowed to equilibrate to assay temperature for 1 h in the EnSpire multimode reader (Perkin Elmer). Galanin-(1–30) (GL Biochem) was dissolved and diluted in water. […] A baseline read was first generated by taking 4 measurements before ligands were added. The plate was measured between 30 and 70 repeats, and each treatment was performed in triplicate. […] EC50 values were calculated using Prism 8.2.0 (GraphPad Software Inc.). The values are provided as means of all independent experiments.

For experiment [4], the target named is T2, GAL2R. The experiment can be described thus: PathHunter eXpress β-arrestin recruitment assay, GAL2R. The arrangement: expressed in transfected cells. Conditions: Table 3; CHO-K1 cells co-expressing GAL2R and β-arrestin 2; 10 µM to 5 nM; (average) ratio, (n) in cell = number of assays; NA = ratio above 1000. The protocol: as §1
Experiment [5] deals with T1, GAL1R. The experiment can be described thus: cAMP Hunter eXpress GAL1R CHO-K1 GPCR assay (inhibition of forskolin-induced cAMP). Conditions: Table 3; CHO-K1 cells expressing GAL1R; 20 µM forskolin; 10 µM to 5 nM; (average) ratio, (n) in cell = number of assays; NA = ratio above 1000. Also noted: expressed in transfected cells. The protocol: To evaluate the ability of lanthipeptides to […] via GAL1R signaling, we used the cAMP Hunter™ eXpress GAL1R CHO-K1 GPCR Assay from Eurofins-DiscoverX. The assay was performed according to the manufacturer’s instructions. Briefly, for one assay, CHO-K1 cells expressing GAL1R were diluted in AssayComplete™ Cell Plating 2 Reagent, and 100 µl was seeded into each well of a 96-well plate. The plate was incubated at 37 °C, 5% CO2 in a humidified incubator. After 24 h of incubation, the media was aspirated, and 45 µl cell assay buffer/antibody mixture was added to all wells. […] Fifteen µl of the serial dilutions was applied in duplicates to the cells. The concentration of forskolin in the assay was 20 µM. The agonists were incubated for 30 min at 37 °C. Next, 15 µL Antibody Solution and 60 μL cAMP Working Detection Solution were added, and the plate was incubated for 1 h in the dark at room temperature. Finally, 60 μL cAMP Solution A was added and, after 3 h of incubation in the dark at room temperature, the chemiluminescent signal was read with a Synergy HT Biotek reader.

Consider `CC(C)C[C@H](NC(=O)[C@H](CC(C)C)NC(=O)[C@H](Cc1ccc(O)cc1)NC(=O)CNC(=O)[C@H](C)NC(=O)[C@H](C)NC(=O)[C@H](CC(N)=O)NC(=O)[C@H](CC(C)C)NC(=O)[C@H](CC(N)=O)NC(=O)[C@H](Cc1c[nH]c2ccccc12)NC(=O)[C@@H]1CCC(=O)N1)C(=O)N[C@@H](C)C(=O)N[C@H]1C(=O)N[C@@H](Cc2c[nH]cn2)C(=O)N[C@@H](C)C(=O)N[C@H](C(=O)NCC(=O)N[C@@H](CC(N)=O)C(=O)N[C@@H](Cc2c[nH]cn2)C(=O)N[C@@H](CCCNC(=N)N)C(=O)O)CS[C@H]1C` [Variant M50b] ([pGlu]WNLNAAGYLLA[dAbu(3S-yl)]HACGNHR-OH; thioether 13-16; C-terminus assumed), for which the “EC50 ratios to Gal-(1-15), GAL1R ß-Arrestin” value at GAL1R [1] is “NA (1) (NA is not active; ratios above 1000 were considered to be not active)”. Further, the “EC50 ratios to Gal-(1-15), GAL2R Ca-efflux” value on GAL2R [2] is given as 2.8 (3). Besides, the “Stimulation of GAL1R, DMR in SY5YR1 cells” value on GAL1R [3] is given as “stimulate GAL2R only, not GAL1R”. In addition, on GAL2R [4], the “EC50 ratios to Gal-(1-15), GAL2R ß-Arrestin” value is recorded as 4.7 (3). For the same molecule, the “EC50 ratios to Gal-(1-15), GAL1R cAMP” value on GAL1R [5] is listed as “NA (2) (NA is not active; ratios above 1000 were considered to be not active)”.
